From patent US20220145303A1, “FRAGILE X MENTAL RETARDATION PROTEIN INTERFERING OLIGONUCLEOTIDES AND METHODS OF USING SAME” (Nogra Pharma Limited, priority 2019, published 2022)

Tests used:
MCC = assay: Western blot of MCC in HCT-116 cells; assay type: cell-based, human; settings: HCT-116, AS 0.5 nM, 48 hours, vs untreated or sense, FIGS. 9A, 9B
Procedure: To investigate whether FMRP regulates MCC, a protein known to interact with the E-cadherin/β-catenin complex, HCT-116 cells were left untreated (U) or transfected with sense FMRP oligonucleotide (S) (final concentration 0.5 nM) or antisense FMRP oligonucleotide (AS) (final concentration 0.5 nM) for 48 hours.

caspase 3 = assay: Activated caspase 3 by flow cytometry in CRC cells; assay type: cell-based, human; settings: oligonucleotide 100 nM 36 hours, staurosporin 1 μM, FIGS. 4A, 4B
Procedure: Immunotools, Friesoythe, Germany) according to the manufacturer's instructions, and incubated with […] of propidium iodide (PI) for 30 min at 4° C. Cells were also transfected with either FMRP sense oligonucleotide or FMRP AS oligonucleotide (final concentration 100 nM) for 36 hours and analyzed for activated caspase 3 and caspase 8. […] Additionally, 36 hours (FIGS. 4F and 4G) or 48 hours post-transfection (FIGS. 4D and 4E), cells were pulsed with […] bromodeoxyuridine for 60 minutes, fixed in 70% cold ethanol, and stored at −20° C. for at least 3 hours. […] Fluorescence was measured using Gallios Flow Cytometer (Beckman Coulter, Life Sciences, Pasadena, Calif., USA) and analyzed using Kaluza software (Beckman Coulter). Viable cells were considered as AV^−/PI^− cells.

RIPK3 = assay: Western blot of phospho-RIPK3 after FMRP antisense treatment; assay type: cell-based; settings: human CRC cell lines, 24 hours, FIGS. 6A, 6C
Procedure: (§1) To confirm the association of FMRP with components of the necroptosis pathway, cells were left untreated or transfected with either FMRP antisense oligonucleotide (final concentration 0.5 nM and 100 nM) or FMRP sense oligonucleotide (final concentration 100 nM); incubated with a pMLKL inhibitor (necrosulfonamide, NSA; final concentration 1 μM)(Calbiochem); or a pRIPK1 inhibitor (necrostatinl, NEC1; final concentration 10 μM)(Cayman Chemical, Ann Arbor, Mich. USA). After 24 hours cells were collected and analyzed by Western blot, or stained with FITC-Annexin V and PI for flow cytometry analysis, as previously described in Examples 1-3.

DLD-1 cells = assay: Cell death by AnnexinV/PI flow cytometry in DLD-1 cells; assay type: cell-based, human; settings: 24 hours, AS 0.5 nM and 100 nM, FIGS. 3E, 3F
Procedure: (§2) Cells were transfected with either FMRP antisense oligonucleotide (AS)(final concentration 0.5 nM and 100 nM) or FMRP sense oligonucleotide (S)(final concentration 100 nM). After 24 hours (FIGS. 3E, 3F, 3J and 3K) or 48 hours (FIG. 3H), cells were collected, washed two times in Annexin V (AV) buffer, stained with FITC-AnnexinV (final dilution 1:100; Immunotools, Friesoythe, Germany) according to the manufacturer's instructions, and incubated with […] of propidium iodide (PI) for 30 min at 4° C. Cells were also transfected with either FMRP sense oligonucleotide or FMRP AS oligonucleotide (final concentration 100 nM) for 36 hours and analyzed for activated caspase 3 and caspase 8. As positive and negative controls, cells were treated, respectively, with staurosporin (final concentration 1 μM, Sigma-Aldrich Milan, Italy) or Q-VD-OPh (a pan-caspase inhibitor; final concentration 1 μM) (R&D Systems, Inc, Minneapolis, Minn.). Additionally, 36 hours (FIGS. 4F and 4G) or 48 hours post-transfection (FIGS. 4D and 4E), cells were pulsed with […] bromodeoxyuridine for 60 minutes, fixed in 70% cold ethanol, and stored at −20° C. for at least 3 hours. […] Fluorescence was measured using Gallios Flow Cytometer (Beckman Coulter, Life Sciences, Pasadena, Calif., USA) and analyzed using Kaluza software (Beckman Coulter). […]

caspase 8 = assay: Activated caspase 8 by flow cytometry in CRC cells; assay type: cell-based, human; settings: oligonucleotide 100 nM 36 hours, FIGS. 4A, 4B
Procedure: as §2

HCT-116 cells [1] = assay: Cell death by AnnexinV/PI flow cytometry in HCT-116 cells; assay type: cell-based, human; settings: 48 hours, AS 0.5 nM and 100 nM, FIG. 3H
Procedure: as §2

HCT-116 cells [2] = assay: Cell migration (pseudo-wound closure) with Ibidi culture insert; assay type: cell-based, human; settings: HCT-116, AS 0.5 nM, T24 and T48, vs untreated or sense, FIGS. 8A, 8B
Procedure: (§3) To investigate the role of FMRP in tumor cell migration and invasion, HCT-116 cells were seeded in each side of an Ibidi® culture insert and grown to confluence then left untreated (U) or transfected with sense FMRP oligonucleotide (S) (final concentration 0.5 nM) or antisense FMRP oligonucleotide (AS) (final concentration 0.5 nM). Additionally, HCT-116 cells were seeded in Transwell® inserts precoated with Matrigel®, and either left untreated (U) or transfected with sense oligonucleotide (S) (final concentration 100 nM) or antisense FMRP oligonucleotide (AS) (final concentration 0.5 nM) for 48 hours.
To determine whether MCC regulation of the E-cadherin/β-catenin complex is also required for the observed inhibition of colorectal cell line migration and invasion (e.g., FIGS. 8A and 8B), HCT-116 cells were seeded in each side of an Ibidi® culture insert and grown to confluence then left untreated (U) or transfected with sense oligonucleotide (S) (final concentration 0.5 nM) or antisense oligonucleotide (AS) (final concentration 0.5 nM) and/or siRNA Ctrl or siRNA MCC.

RIPK1 = assay: Western blot of RIPK1 and phospho-RIPK1 after FMRP antisense treatment; assay type: cell-based; settings: human CRC cell lines, 24 hours
Procedure: as §1

HCT-116 cells [3] = assay: Invasion across Matrigel-coated Transwell inserts; assay type: cell-based, human; settings: HCT-116, AS 0.5 nM, 48 hours, vs untreated or sense, FIGS. 8C, 8D
Procedure: as §3

HCEC-1ct cells = assay: Cell death by AnnexinV/PI flow cytometry in HCEC-1ct cells; assay type: cell-based, human; settings: 24 hours, AS 0.5 nM and 100 nM, FIGS. 3J, 3K
Procedure: as §2

5′-TCCACCACCAGCTCCTCCAT-3′ (all phosphorothioate, sugars by position and methylation of C not given here) [FMRP antisense oligonucleotide, Phosphorothioate single-stranded antisense oligonucleotides complementary to human FMRP]
MCC protein expression (MCC): significantly increased expression of MCC
percentage of activated caspase 3-positive cells (caspase 3): did not alter
phosphorylation of RIPK3 (RIPK3): increased phosphorylation
number of AnnexinV+ or AnnexinV+ PI+ cells (DLD-1 cells): increased number of AnnexinV^+ or AnnexinV^+ Pt cells
percentage of activated caspase 8-positive cells (caspase 8): did not alter
number of AnnexinV+ or AnnexinV+ PI+ cells (HCT-116 cells [1]): neither HCT-116 cells nor HCRC-1ct cells treated with FMRP antisense oligonucleotide exhibited an increased number
percentage of cell-covered area (pseudo-wound) (HCT-116 cells [2]): significantly reduced the percentage of cells covering a pseudo-“wound”
total protein expression levels of RIPK1 (RIPK1; AS 0.5 nM and 100 nM, FIG. 6A): increased the total protein expression levels of RIPK1
phosphorylation of RIPK1 (RIPK1; FIGS. 6A, 6B): increased phosphorylation
number of cells migrating across Matrigel-coated Transwell insert (HCT-116 cells [3]): significantly reduced migration
number of AnnexinV+ or AnnexinV+ PI+ cells (HCEC-1ct cells): neither HCT-116 cells nor HCRC-1ct cells treated with FMRP antisense oligonucleotide exhibited an increased number
